60 compounds from the supplement of paper PMC8837787 can be followed below.

The test system of the assay is Saccharomyces cerevisiae ABC16-Green Monster. Nature of the assay: growth inhibition at single dose (up to 150 µM), below the 70% cut-off for dose-response; higher = more potent. Conditions: 18 h; 30 °C; YPD. The method, boiled down:
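Percent growth inhibition is the reported value. Drug-sensitive S. cerevisiae ABC16-Green Monster cultures in log phase (OD600 0.1–0.2), 200 µl per well in 96-well plates, received each library compound once at 150 µM in biological duplicates, with untreated cultures run alongside. Growth was followed by OD600 at 0 h and after 18 h at 30 °C. Dose-response was not done for compounds below 70% in both replicates.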

`COc1ccc(S(=O)(=O)N2CCSc3cc(Cl)ccc32)cc1`: the “growth inhibition at single dose” value is below 70%. The same measure for `Cc1ccc(CC(=O)NCc2ccc(C#N)cc2)cc1`: below 70%. The same measure for `O=C(CN1CCOCC1)Nc1ccc2ncnc(Nc3ccc(OCc4cccc(F)c4)c(Cl)c3)c2c1`: below 70%. Regarding `c1ccc(Oc2ccc(-c3cc(CN4CCOCC4)[nH]n3)cc2)cc1`, the “growth inhibition at single dose” value is below 70%. The same measure for `C=C(C)CCC(C)N1CCC(N2CCC(C(=O)NCCc3ccccc3)CC2)CC1` (stereo not given): below 70%; for `O=C(NCc1ccc(N2CCCC2=O)cc1)c1cccnc1OCC(F)(F)F`: below 70%; for `CC(C)Cn1c2c(c(O)c(C(=O)Nc3ncccc3O)c1=O)CCCC2`: below 70%.

As for `CCOC(=O)c1cn(CC)c2cc(N(C)CCc3ccc(OC)c(OC)c3)c(F)cc2c1=O`, the “growth inhibition at single dose” value is below 70%. The same measure for `NCC(c1cccs1)S(=O)(=O)c1ccccc1` (stereo not given): below 70%; for `CNCCCNc1ccnc2cc(Cl)ccc12`: below 70%. The same measure for `Cc1nn(Cc2ccccc2)c2sc(C(=O)Nc3nc4ccccc4[nH]3)cc12`: below 70%. The same measure for `CC(=O)c1c[nH]c(C(=O)OCC(=O)NCCc2ccc(C(C)C)cc2)c1`: below 70%; for `CNC(=O)c1ccc(CN(Cc2ccc(SC)cc2)Cc2ccco2)cc1`: below 70%; for `Cc1ccc(F)cc1NC(=O)c1cc(Cl)ccc1Nc1ccccc1`: below 70%. As for `CC(Oc1ccc2ccc(=O)oc2c1)C(=O)N1CCc2ccccc21` (stereo not given), the “growth inhibition at single dose” value was below 70%. The same measure for `O=C(NCc1nnc2n1CCCCC2)c1ccc(-c2ccc(F)cc2)o1`: below 70%; for `CCNC(=O)c1nn(CC2CC2)c2c1CN(C(=O)c1cc(-c3ccccc3F)n[nH]1)CC2`: below 70%; for `CC(C)(C)OC(=O)N1CCC(Cn2nc(-c3cnc4ccccc4c3)c3c(N)ncnc32)CC1`: below 70%.

On to `COc1ccc(/C(C#N)=C/c2ccccc2OC)cc1`, for which the “growth inhibition at single dose” value is below 70%. As to `Cc1cc(O)nc(-n2nc(C)cc2C)n1`, the “growth inhibition at single dose” value is below 70%. As for `COc1cc(C(=O)ON=C(N)Cc2cccc3ccccc23)cc(OC)c1OC`, the “growth inhibition at single dose” value was below 70%. The same measure for `COc1ccc(-c2nc(NC(=O)CS(=O)(=O)c3ccc(F)cc3)sc2C)cc1`: below 70%. The same measure for `CC(C)n1ncc2c(C(=O)NCC(c3cccs3)N3CCOCC3)cc(-c3ccccc3)nc21` (stereo not given): below 70%. Consider `Cc1cc(OCC(=O)NCc2ccccc2)c2cc(Br)ccc2n1`, for which the “growth inhibition at single dose” value is below 70%. The same measure for `Cc1ccc(Nc2nccc(C(F)(F)F)n2)cc1S(=O)(=O)N(C)C`: below 70%; for `CN1CCC(c2cc(-c3ccncc3)c(-c3ccc(F)cc3)[nH]2)CC1`: below 70%; for `CNC1C(OC2C(OC3C(O)C(O)C(NC(=N)N)C(O)C3NC(=N)N)OC(C)C2(O)C=O)OC(CO)C(O)C1O` (stereo not given): below 70%.

For the compound `Cc1ccc(-c2nc3ccccc3o2)cc1NCc1cc(Cc2ccccc2)ccc1O`, the “growth inhibition at single dose” value is below 70%. On to `CCOc1cccc(C2Nc3ccccc3C(=O)N2C2CC2)c1O` (stereo not given), for which the “growth inhibition at single dose” value was below 70%. The same measure for `CS(=O)(=O)c1cccc(-c2cnc3[nH]cc(-c4ccc(CCC(=O)O)cc4)c3c2)c1`: below 70%. Consider `CN1CCN(c2nc(Nc3ccc(O)cc3)nc3ccccc23)CC1`, for which the “growth inhibition at single dose” value was below 70%. Take `CC(=O)N(CCN(C(=O)c1ccc(F)cc1)c1ccccc1)c1ccccc1`: the “growth inhibition at single dose” value is below 70%. The same measure for `C=CCn1c(C)cc(C(=O)COC(=O)C(O)(c2ccccc2)c2ccccc2)c1C`: below 70%. The same measure for `CCN(CC)S(=O)(=O)c1ccc(-c2csc(Nc3ccc(C)c(C)c3)n2)cc1`: below 70%. The same measure for `Cc1c(C)n(Cc2ccc(F)cc2)c2ccc(C(=O)NCc3ccco3)cc12`: below 70%. Regarding `CN(C)c1ccc(-c2nc3cc(N)ccc3[nH]2)cc1`, the “growth inhibition at single dose” value was below 70%. `CCCCCCn1c(=N)n(CC(O)COc2cccc(C)c2)c2ccccc21` (stereo not given): the “growth inhibition at single dose” value is below 70%. The same measure for `Cc1ccc(C(NCC(=O)Nc2sccc2C(N)=O)c2cccs2)cc1` (stereo not given): below 70%; for `COc1ccc(C(=O)Nc2nonc2-c2ccc(OC)c(OC)c2)cc1Cl`: below 70%; for `CC/N=c1\scc(-c2ccc(Cl)cc2)n1/N=C/c1ccc[nH]1`: below 70%. The same measure for `O=C(c1[nH]nc2c1CCCC2)N1CCN(Cc2ccc3c(c2)OCO3)CC1`: below 70%; for `N#Cc1ccsc1NC(=O)CN1CCN(CC(=O)Nc2ccc(Cl)c(C(F)(F)F)c2)CC1`: below 70%; for `CCN(Cc1ccccc1)C1CCN(Cc2cc(Br)ccc2O)CC1`: below 70%. The same measure for `CCCCOC(=O)Nc1cc2nc(C3CCCCC3)[nH]c2cc1N1CCCC1`: below 70%; for `COC(=O)c1c(C)[nH]c(C2=NNC(=NC3CC3)SC2)c1C`: below 70%.

On to `O=c1ccc(-c2nc3c4c5c(sc4ncn3n2)CCCCC5)n[nH]1`, for which the “growth inhibition at single dose” value is below 70%. For the compound `CCN1CCN(c2c(C(=O)c3ccccc3)cnc3cc(OC)c(OC)cc23)CC1`, the “growth inhibition at single dose” value is below 70%.

With `CC(C)(C)c1cc(C(=O)N2CCN(c3nccnc3C#N)CC2)n(Cc2ccccc2)n1`, the “growth inhibition at single dose” value was below 70%. With `C[C@@H]1[C@H](O)[C@@H](C)/C=C/C=C/C=C/C=C/C=C/C=C/C=C/[C@H](O[C@@H]2O[C@H](C)[C@@H](O)[C@H](N)[C@@H]2O)C[C@@H]2O[C@](O)(C[C@@H](O)C[C@@H](O)[C@H](O)CC[C@@H](O)C[C@@H](O)CC(=O)O[C@H]1C)C[C@H](O)[C@H]2C(=O)O`, the “growth inhibition at single dose” value was below 70%. The same measure for `O=C(Nc1ccc(Cl)cc1C(=O)Nc1ccncc1)c1ccc(Cl)cc1Cl`: below 70%; for `CCOc1cc2c(cc1OCC)C(c1cc(Cl)c(O)c(OCC)c1)NCC2` (stereo not given): below 70%; for `Cc1[nH]c(-c2ccccn2)nc(=O)c1CC(=O)NC1CCCCCCC1`: below 70%. The same measure for `COc1ccc(NC(=O)c2ccn[nH]2)cc1NC(=O)c1ccc(Cl)cc1F`: below 70%. The same measure for `N#CC(C(=O)c1cc(S(=O)(=O)N2CCc3ccccc3C2)ccc1Cl)c1ccccn1` (stereo not given): below 70%; for `O=C(Nc1ccc(Cl)cc1)Nc1nnc(CSCc2ccc(Cl)cc2)s1`: below 70%.

`CCOC(=O)c1[nH]c(C)c(C(=O)CN(C)S(=O)(=O)c2c(C)noc2C)c1C`: the “growth inhibition at single dose” value is below 70%.

Regarding `OC(CNCc1ccccc1)Cn1c2ccccc2c2ccccc21` (stereo not given), the “growth inhibition at single dose” value was below 70%.

Turning to `Cc1nnc(NCc2cccc(Cl)c2)c2ccccc12`, the “growth inhibition at single dose” value is below 70%. The same measure for `Cn1c(=O)c2c(S(C)(=O)=O)snc2n(C)c1=O`: below 70%. As to `CN(C)c1ccc(C=Cc2nc(=O)c3ccccc3o2)cc1`, the “growth inhibition at single dose” value is below 70%.
